± gives the standard deviation of the averaged measurements.
What was measured:
Assay in all cases: level (log10 ratio to DMSO vehicle control); higher = higher biomarker level / cell amount than vehicle control
[1] = compound: O=C(O)C(F)(F)C(F)(F)C(F)(F)C(F)(F)C(F)(F)C(F)(F)C(F)(F)F [Perfluorooctanoic acid]; settings: in DMSO
Experimental: (§1)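 BioMAP Diversity Plus panel of 12 human primary cell co-culture systems (3C, 4H, LPS, SAg, BT, BF4T, BE3C, CASM3C, HDF3CGF, KF3CT, MyoF, Mphg). Compounds were added 1 h before stimulation and left for 24 h (MyoF 48 h; BT 72 h for soluble read-outs or 6 d for IgG). Biomarkers were read by ELISA, cytotoxicity by SRB, PBMC viability and proliferation by Alamar Blue. Each well value was divided by the mean of 8 DMSO control wells on the same plate and log10 transformed; duplicate blinded samples were tested at 4 concentrations.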

[2] = compound: OCCCC(F)(F)C(F)(F)C(F)(F)C(F)(F)C(F)(F)C(F)(F)C(F)(F)C(F)(F)F [3-(Perfluorooctyl)propanol]; settings: 6700 nM; in DMSO
Experimental: as §1

[3] = compound: FC(F)(I)C(F)(F)C(F)(F)C(F)(F)C(F)(F)C(F)(F)I [1,6-Diiodoperfluorohexane]; settings: 6700 nM; in DMSO
Experimental: as §1

[4] = compound: OCCCCC(F)(F)C(F)(F)C(F)(F)C(F)(F)F [4:4 Fluorotelomer alcohol]; settings: in DMSO
Experimental: as §1

[5] = compound: O=C(Cl)C(F)(F)C(F)(F)C(F)(F)C(=O)Cl [Hexafluoroglutaryl chloride]; settings: in DMSO
Experimental: as §1

[6] = compound: O=C(O)C(F)(F)C(F)(F)C(=O)O [Tetrafluorosuccinic acid]; settings: in DMSO
Experimental: as §1

[7] = compound: OCC(F)(F)C(F)(F)C(F)(F)C(F)(F)C(F)(F)C(F)(F)C(F)(F)C(F)(F)C(F)(F)C(F)(F)C(F)(F)F [11:1 Fluorotelomer alcohol]; settings: in DMSO
Experimental: as §1

[8] = compound: C=CC(=O)OCC(F)(F)C(F)(F)C(F)(F)C(F)(F)COC(=O)C=C [1H,1H,6H,6H-Perfluorohexane-1,6-diol diacrylate]; settings: 6700 nM; in DMSO
Experimental: as §1

[9] = compound: O=C(CC(=O)C(F)(F)C(F)(F)C(F)(F)F)c1cccs1 [(Perfluorobutyryl)-2-thenoylmethane]; settings: in DMSO
Experimental: as §1

Row | Test System | level (log10) ([1]; 6700 nM) | level (log10) ([1]; 20000 nM) | level (log10) ([1]; 60000 nM) | level (log10) [2] | level (log10) [3] | level (log10) ([4]; 6700 nM) | level (log10) ([4]; 20000 nM) | level (log10) ([4]; 60000 nM) | level (log10) ([5]; 6700 nM) | level (log10) ([5]; 20000 nM) | level (log10) ([5]; 60000 nM) | level (log10) ([6]; 6700 nM) | level (log10) ([6]; 20000 nM) | level (log10) ([6]; 60000 nM) | level (log10) ([7]; 1100 nM) | level (log10) ([7]; 3300 nM) | level (log10) ([7]; 10000 nM) | level (log10) [8] | level (log10) ([9]; 6700 nM) | level (log10) ([9]; 20000 nM)
1 | 3C:CD141/Thrombomodulin | 0.023 ± 0.065 | -0.011 ± 0.081 | -0.0115 ± 0.039 | -0.0055 ± 0.019 | -0.003 | -0.0225 ± 0.035 | -0.0265 ± 0.067 | -0.007 ± 0.076 | -0.0455 ± 0.013 | -0.0275 ± 0.0078 | -0.056 ± 0.057 | -0.0285 ± 0.039 | -0.048 ± 0.024 | -0.038 ± 0.0085 | 0.0225 ± 0.021 | 0.0705 ± 0.00071 | 0.09 ± 0.02 | -0.079 ± 0.021 | -0.113 ± 0.081 | -0.071 ± 0.05
2 | HDF3CGF:CCL2/MCP-1 | -0.0345 ± 0.044 | -0.0305 ± 0.04 | -0.0085 ± 0.057 | -0.284 ± 0.03 | -0.68 | 0.004 ± 0.0014 | 0.008 ± 0.0099 | 0.007 ± 0.016 | -0.036 ± 0.0099 | -0.0285 ± 0.037 | 0.0095 ± 0.00071 | -0.035 ± 0.0099 | -0.0415 ± 0.0064 | -0.0275 ± 0.012 | 0.0305 ± 0.033 | 0.0075 ± 0.0064 | 0.0095 ± 0.015 | -0.437 ± 0.0028 | -0.005 ± 0.011 | -0.172 ± 0.014
3 | CASM3C:SRB | -0.005 ± 0.0042 | 0.0005 ± 0.00071 | 0.0095 ± 0.00071 | -0.008 ± 0.0042 | 0.002 | -0.0045 ± 0.00071 | 0.0015 ± 0.012 | -0.0025 ± 0.016 | -0.0045 ± 0.0021 | 0.007 ± 0.0042 | 0.0115 ± 0.016 | -0.012 ± 0.0028 | -0.005 ± 0.0014 | -0.0105 ± 0.005 | 0.0075 ± 0.005 | 0.0095 ± 0.0064 | 0.008 ± 0.0071 | 0 ± 0.0014 | 0.0105 ± 0.0064 | -0.0125 ± 0.0078
4 | KF3CT:SRB | -0.005 ± 0.0014 | -0.003 ± 0.0014 | 0.007 ± 0.037 | -0.053 | -0.288 | -0.02 ± 0.0085 | -0.011 ± 0.017 | 0.004 ± 0.018 | -0.0015 ± 0.005 | 0.005 ± 0.0014 | 0.0055 ± 0.0064 | -0.012 | -0.0005 ± 0.0078 | 0.001 ± 0.0042 | -0.01 ± 0.0057 | -0.0285 ± 0.005 | -0.014 ± 0.0057 | 0.003 ± 0.0057 | -0.008 | -0.0105 ± 0.005
5 | HDF3CGF:M-CSF | -0.0205 ± 0.04 | 0.013 ± 0.0028 | 0.0235 ± 0.016 | -0.258 ± 0.0092 | -0.454 | -0.008 | -0.0015 ± 0.0092 | -0.014 ± 0.0014 | -0.003 ± 0.02 | -0.0035 ± 0.016 | 0 ± 0.0099 | -0.0505 ± 0.018 | -0.0735 ± 0.0035 | -0.048 ± 0.0099 | 0.0115 ± 0.016 | 0.0095 ± 0.032 | -0.003 ± 0.021 | -0.588 ± 0.054 | 0.0085 ± 0.013 | -0.001 ± 0.0028
6 | CASM3C:CCL2/MCP-1 | 0.007 ± 0.0085 | -0.01 ± 0.03 | 0.0215 ± 0.022 | -0.0175 ± 0.016 | -0.006 | -0.004 ± 0.011 | -0.025 ± 0.0099 | 0.0285 ± 0.059 | -0.0055 ± 0.013 | -0.005 ± 0.0014 | 0.011 ± 0.014 | -0.0005 ± 0.00071 | -0.0165 ± 0.005 | -0.0005 ± 0.025 | -0.01 ± 0.024 | -0.0055 ± 0.012 | 0.012 ± 0.025 | -0.0195 ± 0.0064 | 0.039 ± 0.011 | -0.017 ± 0.011
7 | KF3CT:uPA | 0.0095 ± 0.0021 | 0.012 ± 0.0042 | 0.013 ± 0.017 | -0.0045 ± 0.025 | -0.002 | 0.01 ± 0.016 | -0.0005 ± 0.00071 | 0.0005 ± 0.022 | 0.003 ± 0.0099 | 0.0235 ± 0.00071 | 0.015 ± 0.014 | -0.012 ± 0.0071 | 0.0025 ± 0.0064 | -0.0285 ± 0.00071 | -0.0115 ± 0.015 | -0.0335 ± 0.00071 | -0.023 ± 0.016 | -0.057 ± 0.0057 | 0.021 ± 0.0014 | 0.0195 ± 0.005
8 | KF3CT:TIMP-2 | -0.0195 ± 0.015 | 0.0025 ± 0.016 | 0.035 ± 0.038 | -0.0255 ± 0.063 | -0.022 | 0.0135 ± 0.0064 | 0.0075 ± 0.019 | -0.0015 ± 0.015 | -0.029 ± 0.023 | 0.003 ± 0.0099 | 0.02 ± 0.034 | 0 ± 0.0071 | 0.0365 ± 0.005 | 0.027 ± 0.024 | -0.014 ± 0.0028 | -0.0405 ± 0.013 | 0.002 ± 0.016 | -0.088 ± 0.0057 | -0.0365 ± 0.00071 | -0.05 ± 0.016
9 | lMphg:IL-1alpha | -0.0105 ± 0.0021 | -0.0085 ± 0.026 | 0.0545 ± 0.026 | -0.0015 ± 0.03 | 0.024 | -0.0075 ± 0.005 | -0.0125 ± 0.005 | 0.0115 ± 0.015 | -0.0255 ± 0.052 | -0.041 ± 0.086 | -0.03 ± 0.082 | -0.016 ± 0.0057 | -0.015 ± 0.025 | -0.0035 ± 0.03 | 0.057 ± 0.025 | 0.039 ± 0.0085 | -0.12 ± 0.076 | 0.0245 ± 0.057 | 0.0035 ± 0.0035 | 0.0395 ± 0.04
10 | lMphg:CD40 | -0.0035 ± 0.021 | -0.021 ± 0.0057 | -0.018 ± 0.014 | -0.037 ± 0.018 | -0.029 | -0.0295 ± 0.005 | -0.0195 ± 0.029 | -0.0055 ± 0.033 | 0.036 ± 0.037 | 0.0115 ± 0.022 | -0.002 ± 0.011 | -0.0125 ± 0.015 | -0.011 ± 0.0014 | 0.009 ± 0.014 | 0.0005 ± 0.036 | 0.005 ± 0.042 | -0.357 ± 0.028 | -0.051 ± 0.024 | -0.0105 ± 0.016 | -0.119 ± 0.0071
11 | HDF3CGF:Proliferation 72hr | 0.06 ± 0.041 | 0.15 ± 0.005 | 0.0875 ± 0.0078 | -1.04 ± 0.033 | -0.919 | -0.003 ± 0.044 | 0.0205 ± 0.057 | 0.0355 ± 0.039 | 0.001 ± 0.0042 | -0.0005 ± 0.012 | -0.0095 ± 0.019 | -0.08 ± 0.076 | -0.135 ± 0.061 | -0.0935 ± 0.069 | -0.015 ± 0.065 | 0 ± 0.0099 | 0.021 ± 0.02 | -0.567 ± 0.013 | -0.38 ± 0.0092 | -0.485 ± 0.005
12 | CASM3C:IL-6 | -0.0135 ± 0.019 | -0.022 ± 0.027 | -0.008 ± 0.031 | -0.0335 ± 0.0021 | -0.063 | 0.0005 ± 0.016 | -0.0215 ± 0.025 | 0.0155 ± 0.077 | 0.006 ± 0.014 | -0.0145 ± 0.021 | 0.031 ± 0.017 | -0.0165 ± 0.015 | -0.0295 ± 0.0078 | -0.0015 ± 0.036 | -0.0065 ± 0.00071 | -0.022 ± 0.025 | 0.005 ± 0.02 | -0.0735 ± 0.15 | -0.006 ± 0.028 | -0.068 ± 0.013
13 | HDF3CGF:CXCL10/IP-10 | -0.0035 ± 0.011 | -0.017 ± 0.016 | -0.03 ± 0.034 | -0.275 ± 0.057 | -0.315 | 0.0065 ± 0.0092 | 0.0155 ± 0.013 | 0.0105 ± 0.016 | -0.013 ± 0.021 | -0.01 ± 0.016 | -0.0235 ± 0.0035 | -0.0225 ± 0.0078 | -0.027 ± 0.04 | -0.0425 ± 0.064 | -0.0435 ± 0.015 | -0.0725 ± 0.0064 | -0.039 ± 0.02 | -0.492 ± 0.023 | -0.01 | -0.141 ± 0.012
14 | MyoF:CD106/VCAM-1 | 0.0065 ± 0.011 | 0.004 ± 0.0028 | 0.0095 ± 0.00071 | -0.078 ± 0.044 | -0.373 | -0.004 ± 0.016 | -0.01 ± 0.018 | -0.0055 ± 0.0078 | -0.003 ± 0.0028 | 0.0015 ± 0.018 | 0.0035 ± 0.012 | -0.0095 ± 0.016 | 0.0005 ± 0.019 | -0.015 ± 0.0085 | -0.0055 ± 0.037 | -0.0075 ± 0.022 | -0.0025 ± 0.00071 | -0.219 ± 0.035 | -0.0225 ± 0.039 | -0.0315 ± 0.013

Reference: the supplement of paper PMC10331698
